Literature values as cited in patent US11780971B2, “Active yarns and textiles for the stabilization and controlled release of active compounds” (priority 2018, dated 2023).
Several values for one entry are separate records, joined by “and”; a condition that tells them apart may be missing. Identical values can stand only once.

Tested on: Staphylococcus aureus strain

## C=CCc1ccc(O)c(OC)c1 [eugenol]
  Minimum Inhibitory Concentration (MIC): 625 µg/mL and 662 µg/mL
